From article PMC7618597, “Dual Nurr1/RXR agonism of valerenic acid and synthetic mimetics enables dimer-selective Nurr1 modulation” (ACS medicinal chemistry letters, 2025)

System: HEK293T cells
Assay: Multiplex toxicity assay
Assay type: cell-based
Conditions: for toxicity at the test concentrations of the gene expression study: 2 (10 μM), 3 (1 μM), multiplex toxicity assay; for concentration at which toxic effects start: HEK293T cells, confluence, metabolic activity, pyknosis, necrosis, n=4
Protocol: page 9: and 20 s of elongation at 68 °C. PCR product specificity was evaluated using a melting curve analysis ranging from 65 to 95 °C. Nurr1 target gene expression was normalized to rGAPDH mRNA expression per sample using the ΔCt-method. The following primers and annealing temperatures were used: rGAPDH (59.4 °[…]); rTH (59.4 °C): 5'-[…]); rFLRT2 (59.0 °C): 5'-[NT]); rSESN3 (62.4 °C): […]); rCRMP4 (58.0 °C): […]); rBDNF (58.0 °C): 5'-[NT]); rBIRC5 (59.4 °C): 5'-[…]); rCCND2 (59.0 °C): [NT]); rXIAP (61.1 °C): […]); rSOD2 (59.4 °C): [NT]). Multiplex toxicity assay. HEK293T cells were grown in DMEM high glucose, supplemented with 10% FCS, sodium pyruvate (1 mM), penicillin (100 U/mL), and streptomycin (100 μg/mL) at 37 °C and 5% CO2. The day before experiment, cells were seeded in 96-well plates (2 × 10^4 cells per well) in culture medium with reduced serum content (0.2%). The next day, medium was changed, maintaining the low serum content and additionally containing 0.1% DMSO with 2 (1 or 10 μM) or 3 ([…]), 0.1% DMSO with bexarotene (100 μM) or flavopiridol (100 μM) as positive controls, or 0.1% DMSO alone as untreated control. Each sample was prepared in 4 biologically independent replicates. After incubation for 24 h, the medium was changed to 90 μL culture medium without phenol red (0.2% FCS) and 10 μL Cell Counting Kit- 8 solution (CCK-8, MedChem Express #HY-[…]), and absorbance was measured after 2 h incubation at 450 nm on a Tecan Spark Cyto (Tecan Group AG) to assess metabolic activity of the cells. Thereafter, Hoechst33342 (10 μM, #ab228551, Abcam Limited, Cambridge, UK) and Live-or-Dye Nuc-Fix Red (0.05×, Biotium, Inc., Fremont, CA, 1691 USA) were added and incubated for 30 min to detect pyknosis and cellular necrosis, respectively. After incubation, a total of 3 fluorescence images per well at 10× magnification was taken to detect Hoechst33342-positive cell nuclei (Ex: 381-400 nm, Em: 414-450 nm) and Live-or- Dyepositive cells (Ex: 543-566 nm, Em: 580-611 nm), respectively, using a Tecan Spark Cyto (Tecan Group AG). Necrotic cells were counte d using CellProfiler (Version 4.2.6). Reference readings for background correction and detection of autofluorescence were taken at the same wavelengths prior to staining. Before drug administration, after the first medium exchange, 24 h after drug administration, and after fluorescence imaging cell confluence was assessed using the Tecan Spark Cyto, to account for changes in cell confluence due to drug administration and cell handling. Pyknosis was defined via a cutoff range describing the significant shift of Hoechst33342-positive signal per nuclear area in bexarotene vs. vehicle treated cells. The mean intensity/area values for each well were further normalized to the […] increment of pyknosis. […]

SMILES | toxicity at the test concentrations of the gene expression study | concentration at which toxic effects start [µM]
Cc1c2c(n(-c3ccc(CC(=O)O)cc3)c1C)CCC(F)(F)C2 [compound 2] | non-toxic | > 30
Cc1c(C)n(-c2ccc(CC(=O)O)cc2)c2ccc(F)cc12 [compound 3] | non-toxic | 10
